Reference: ChEMBL document CHEMBL3797077, “Design and synthesis of N-(4-aminopyridin-2-yl)amides as B-Raf(V600E) inhibitors” (Bioorg Med Chem Lett, 2016)

Assays:
[1] = Cytotoxicity against human HCT116 cells harboring wild type B-Raf assessed as growth inhibition after 72 hrs by MTT assay; format: functional, cell-based; settings: HCT-116, 72 h
HT-29 = test: Cytotoxicity against human HT-29 cells harboring B-Raf V600E mutant assessed as growth inhibition after 72 hrs by MTT assay; format: functional, cell-based; settings: HT-29, 72 h
[2] = molecular target: Serine/threonine-protein kinase B-raf (Homo sapiens, UniProt P15056); test: Inhibition of recombinant wild type full length human GST-tagged B-Raf expressed in baculovirus expression system using Z'-LYTE Ser/Thr3 peptide as substrate incubated for 1 hr by FRET-based Z'-LYTE assay
[3] = molecular target: Serine/threonine-protein kinase B-raf (Homo sapiens, UniProt P15056, V600E); test: Inhibition of recombinant human N-terminal GST-tagged B-Raf V600E mutant expressed in baculovirus expression system using Z'-LYTE Ser/Thr3 peptide as substrate incubated for 1 hr by FRET-based Z'-LYTE assay
[4] = Cytotoxicity against human COLO205 cells harboring B-Raf V600E mutant assessed as growth inhibition after 72 hrs by MTT assay; format: functional, cell-based; settings: COLO 205, 72 h
COLO 205 = test: Selectivity ratio of IC50 for human HCT116 cells harboring wild type B-Raf to IC50 for human COLO205 cells harboring B-Raf V600E mutant; format: functional
HCT-116 = test: Selectivity ratio of IC50 for human HCT116 cells harboring wild type B-Raf to IC50 for human HT-29 cells harboring B-Raf V600E mutant; format: functional

Serine/threonine-protein kinase B-raf (Homo sapiens, UniProt P15056, V600E), sequence (P15056 2-766 V600E limits assumed): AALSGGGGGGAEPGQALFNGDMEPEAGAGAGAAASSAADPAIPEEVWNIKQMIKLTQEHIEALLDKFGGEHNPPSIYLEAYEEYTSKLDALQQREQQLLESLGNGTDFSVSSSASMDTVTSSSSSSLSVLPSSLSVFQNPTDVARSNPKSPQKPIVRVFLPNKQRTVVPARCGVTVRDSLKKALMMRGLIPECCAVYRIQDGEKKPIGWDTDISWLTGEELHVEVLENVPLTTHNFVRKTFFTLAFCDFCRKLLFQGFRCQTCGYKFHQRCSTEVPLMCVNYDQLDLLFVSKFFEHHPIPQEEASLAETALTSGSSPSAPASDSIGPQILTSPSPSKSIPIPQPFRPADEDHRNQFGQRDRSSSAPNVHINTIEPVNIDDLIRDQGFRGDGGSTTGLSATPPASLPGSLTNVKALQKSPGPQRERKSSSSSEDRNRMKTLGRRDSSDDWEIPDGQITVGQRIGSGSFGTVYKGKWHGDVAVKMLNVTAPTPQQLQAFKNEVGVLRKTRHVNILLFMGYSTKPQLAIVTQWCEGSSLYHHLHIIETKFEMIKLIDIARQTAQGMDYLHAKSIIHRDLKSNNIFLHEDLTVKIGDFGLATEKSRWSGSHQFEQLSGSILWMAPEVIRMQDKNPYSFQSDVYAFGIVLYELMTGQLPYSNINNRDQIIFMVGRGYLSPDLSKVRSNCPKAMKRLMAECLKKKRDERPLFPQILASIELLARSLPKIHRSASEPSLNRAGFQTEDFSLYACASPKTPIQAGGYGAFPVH
Serine/threonine-protein kinase B-raf (Homo sapiens, UniProt P15056), sequence (P15056 whole entry): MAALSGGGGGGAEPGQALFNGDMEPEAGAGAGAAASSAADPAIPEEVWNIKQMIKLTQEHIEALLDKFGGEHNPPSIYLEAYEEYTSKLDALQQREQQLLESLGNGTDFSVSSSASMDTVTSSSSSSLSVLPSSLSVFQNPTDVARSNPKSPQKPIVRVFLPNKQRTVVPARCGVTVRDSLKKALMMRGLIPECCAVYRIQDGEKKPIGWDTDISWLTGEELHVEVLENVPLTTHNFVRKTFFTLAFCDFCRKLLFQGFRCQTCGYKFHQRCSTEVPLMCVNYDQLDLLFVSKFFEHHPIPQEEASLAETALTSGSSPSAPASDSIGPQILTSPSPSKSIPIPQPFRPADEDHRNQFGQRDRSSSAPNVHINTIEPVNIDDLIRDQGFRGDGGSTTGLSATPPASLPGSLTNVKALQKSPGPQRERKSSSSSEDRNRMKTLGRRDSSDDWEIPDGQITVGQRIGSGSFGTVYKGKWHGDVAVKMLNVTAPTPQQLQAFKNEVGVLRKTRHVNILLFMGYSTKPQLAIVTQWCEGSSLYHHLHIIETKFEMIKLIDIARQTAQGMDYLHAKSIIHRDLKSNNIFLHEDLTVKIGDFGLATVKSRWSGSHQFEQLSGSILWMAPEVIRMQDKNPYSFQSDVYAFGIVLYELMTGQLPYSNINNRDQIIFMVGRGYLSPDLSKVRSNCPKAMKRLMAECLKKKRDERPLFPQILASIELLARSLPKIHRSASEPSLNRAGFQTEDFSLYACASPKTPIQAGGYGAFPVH

`N#CC1(c2cccc(C(=O)Nc3cccc(Nc4ccnc(NC(=O)C5CC5)c4)c3)c2)CC1` showed an IC50 [1] of 1350 nM, an IC50 (HT-29) of 791 nM and an IC50 [2] of 2030 nM. The IC50 [3] was 79 nM and the IC50 [4] was 725 nM.

Molecule `O=C(Nc1cccc(Nc2ccnc(NC(=O)C3CC3)c2)c1)c1cccc(C2CC2)c1` has an IC50 [1] of 221 nM, an IC50 (HT-29) of 92 nM and an IC50 [2] of 453 nM. It also gave an IC50 [3] of 35 nM and an IC50 [4] of 111 nM.

For `CCCS(=O)(=O)Nc1ccc(F)c(C(=O)c2c[nH]c3ncc(-c4ccc(Cl)cc4)cc23)c1F` [VEMURAFENIB], the IC50 [1] was 14600 nM, the IC50 (HT-29) was 156 nM and the IC50 [4] was 44 nM.

`CC(=O)Nc1cc(Nc2cccc(NC(=O)c3cccc(C4CC4)c3)c2)ccn1` showed an IC50 [1] of 367 nM, an IC50 (HT-29) of 236 nM and an IC50 [2] of 1200 nM. The IC50 [3] was 50 nM and the IC50 [4] was 131 nM.

`CC(C)c1cccc(C(=O)Nc2cccc(Nc3ccnc(NC(=O)C4CC4)c3)c2)c1` gave an IC50 [1] of 1060 nM, an IC50 (HT-29) of 462 nM and an IC50 [2] of 148 nM. For the same molecule, the IC50 [3] was 13 nM and the IC50 [4] was 444 nM.

With `Cc1cccc(C(=O)Nc2cccc(Nc3ccnc(NC(=O)C4CC4)c3)c2)c1` the IC50 [3] was 1210 nM.

Work on `N#Cc1c(Oc2ccc(F)c(NC(=O)Cc3cccc(C(F)(F)F)c3)c2)ccc2nc(NC(=O)C3CC3)sc12` yielded an IC50 [1] of 362 nM, an IC50 (HT-29) of 33 nM and an IC50 [2] of 77 nM. The IC50 [4] was 25 nM.

In the case of `CC(C)C(=O)Nc1cc(Nc2cccc(NC(=O)c3cccc(C4CC4)c3)c2)ccn1`, the IC50 [3] is reported as 420 nM.

Work on `N#Cc1cccc(C(=O)Nc2cccc(Nc3ccnc(NC(=O)C4CC4)c3)c2)c1` yielded an IC50 [3] of 3530 nM.

Molecule `CCc1cccc(C(=O)Nc2cccc(Nc3ccnc(NC(=O)C4CC4)c3)c2)c1` has an IC50 [3] of 110 nM.

Work on `O=C(Nc1cccc(Nc2ccnc(NC(=O)C3CC3)c2)c1)c1cccc(Cl)c1` yielded an IC50 [3] of 785 nM.

`CCC(=O)Nc1cc(Nc2cccc(NC(=O)c3cccc(C4CC4)c3)c2)ccn1` gave an IC50 [3] of 125 nM.

Work on `O=C(Nc1cccc(Nc2ccnc(NC(=O)C3CC3)c2)c1)c1cccc([N+](=O)[O-])c1` yielded an IC50 [3] of 1510 nM.

For `O=C(Nc1cccc(Nc2ccnc(NC(=O)C3CC3)c2)c1)c1ccccc1C(F)(F)F`, the IC50 [3] was > 10000 nM.

For `O=C(Nc1cccc(Nc2ccnc(NC(=O)C3CC3)c2)c1)c1ccc(C(F)(F)F)cc1`, the IC50 [3] was > 10000 nM.

With `O=C(Nc1cccc(Nc2ccnc(NC(=O)C3CCCCC3)c2)c1)c1cccc(C2CC2)c1` the IC50 [3] was 563 nM.

`CC(C)(C)C(=O)Nc1cc(Nc2cccc(NC(=O)c3cccc(C4CC4)c3)c2)ccn1` gave an IC50 [3] of 1030 nM.

In the case of `CC(C)(C)c1cccc(C(=O)Nc2cccc(Nc3ccnc(NC(=O)C4CC4)c3)c2)c1`, the IC50 [1] is reported as 1380 nM, the IC50 (HT-29) is reported as 991 nM and the IC50 [2] is reported as 240 nM. For the same molecule, the IC50 [3] was 20 nM and the IC50 [4] was 787 nM.

Work on `O=C(Nc1cccc(Nc2ccnc(NC(=O)C3CCC3)c2)c1)c1cccc(C2CC2)c1` yielded an IC50 [3] of 182 nM.

In the case of `CC(C)(C#N)c1cccc(C(=O)Nc2cccc(Nc3ccnc(NC(=O)C4CC4)c3)c2)c1`, the IC50 [1] is reported as 1090 nM, the “Ratio IC50” value (COLO 205) is reported as 12 and the IC50 (HT-29) is reported as 94 nM. For the same molecule, the IC50 [2] was 476 nM, the IC50 [3] was 38 nM and the “Ratio IC50” value (HCT-116) was 12. The IC50 [4] was 136 nM.

In the case of `O=C(Nc1cccc(Nc2ccnc(NC(=O)C3CC3)c2)c1)c1cccc(C(F)(F)F)c1`, the IC50 [3] is reported as 141 nM.

`O=C(Nc1cccc(Nc2ccnc(NC(=O)C3CCCC3)c2)c1)c1cccc(C2CC2)c1` gave an IC50 [3] of 434 nM.
